Experimental data as given in patent US11045559B2, “Reactive fluorogenic compound and nanocomposite for sensing hydrogen sulfide comprising the same” (KOREA INSTITUTE OF SCIENCE AND TECHNOLOGY, priority 2017, dated 2021).

Test: Fluorescence response and chemoselectivity of ABR in organic media
Excerpt: Specifically, in order to devise a H2S-responsive fluorogenic molecular probe, the present inventors have adopted a reaction strategy based on the chemoselective reduction of aryl azides to amines, which is triggered through nucleophilic attack by a hydrosulfide anion (HS^−), which is the main active form of H2S under physiological conditions. In the probe design, the 4-azidobenzyl group was selected as a self-immolative aryl azide linker, and it was linked to a fluorescent emitter, resorufin, at its 7-hydroxy position. Since the 7-hydroxy substituent is known to efficiently quench the fluorescence of resorufin, the designed molecular probe, azidobenzylresorufin (ABR), is anticipated to be nonfluorescent and able to undergo self-immolative cleavage upon reaction with HS^−, to release a 1,6-elimination product (azaquinone methide) and resorufin with fluorescence recovery. […] Along the resulting fluorescence spectrum, the ^1H-NMR analysis confirmed that the fluorescent product is resorufin recovered through the self-immolative release from ABR after reduction by H2S (FIG. 3).

## [N-]=[N+]=Nc1ccc(COc2ccc3nc4ccc(=O)cc-4oc3c2)cc1 [ABR, 7-(4-azidobenzyloxy)-3H-phenoxazin-3-one]
NaHS present vs absent, FIG. 2a
  fluorescence response toward H2S: fluorescence turn-on response toward H2S
Reactive sulfur, oxygen, nitrogen species 100 μM (GSH 1 mM) in acetonitrile, FIG. 2b
  chemoselectivity in spectroscopic response: responded only to H2S
